The record followed here is BindingDB's records for doi:10.1016/s0960-894x(98)00722-7 (Institut De Chimie Organique De L'Universit&#233, 1999).

The assay is described as follows: Inhibitory activity against rice Alpha-galactosidase.

Consider `OCC1=NO[C@H]2[C@H](O)C(O)O[C@@H]12` (stereo partly drawn) [(3aS,6S,6aS)-3-Hydroxymethyl-3a,5,6,6a-tetrahydro-furo[2,3-d]isoxazole-5,6-diol], for which the IC50 (usually the concentration that inhibits the measured activity by half) is 805 µM.
